# Reference: US20060281088A1, “Markers for lxr activation” (priority 2003, published 2006)
# Experiments:
# THP1 macrophages [1] = assay: Gene expression measurement by Taqman quantitative RT-PCR in THP1 macrophages; assay type: cell-based, human; details: result in words
# Excerpt: Three oligonucleotides are used: a forward primer, a reverse primer, and a probe. All of them are specific for the target and are able to bind to it. The TaqMan assay uses a probe technology that exploits 5′→3′-nuclease activity of an enzyme, the most commonly used being Taq polymerase. The assay efficiency is largely dependent on this 5′→3′ nuclease activity. In this regard one should be careful in choosing a suitable polymerase. […] The probe is an oligonucleotide with a reporter dye at the 5′ end and a quencher dye at the 3′ end. The fluorescent reporter dye is attached covalently to the 5′ end and can be FAM (6-carboxyfluorescein), TET (tetrachloro-6-carboxyfluorescein), JOE (2,7-dimethoxy-4,5-dichloro-6-carboxyfluorescein), HEX (hexacholoro-6-carboxyfluorescein), or VIC. The reporter is quenched by TAMRA (6-carboxytetramethylrhodamine), bound to the 3′ end by a linker arm. […] An advantage of using DABCYL in the TaqMan probes is its reduced autofluorescence compared with TAMRA When the probe is intact the quencher dye absorbs the fluorescence of the reporter dye due to the proximity between both. […] By the 5′-exonuclease activity of the Taq:polymerase the probe is hydrolyzed and the reporter dye is separated from the quencher, resulting in an increase in fluorescence emission. […]
# THP1 macrophages [2] = assay: Gene expression measurement by Gene Chip Microarray in THP1 macrophages; assay type: cell-based, human; details: Gene Chip Microarray analysis, result in words
# Method: Cells were incubated at 37° C. and 5.2% CO2. For experimental treatments, cells were seeded at a density of 1×10^6/ml in 6-well plates in medium containing 100 nM phorbol 12-myristate 13-acetate (PMA) for 72 hours to fully differentiate them into adherent macrophages. The medium was then replaced by culture medium containing PMA with vehicle (DMSO) or test compound for 6 or 24 hours prior to harvesting. Total RNA was isolated using the TriZol reagent (Life Technologies) or the RNeasy mini kit (Qiagen) according to the manufacturer's protocols. To remove contaminating DNA, the samples were treated with RNAse free DNAse (GibCo).
# Synthesis of first and second strand cDNA were performed using the SuperScript Choice Gene Chip Kit (Life Technologies) and reagents from Gibco. The double stranded cDNA, containing an incorporated T7 RNA polymerase binding site, was purified by extraction with a mix of phenol:chloroform:isoamylalcohol (Life Technologies). The organic and aqueous phases were separated by Phase Lock Gel (Eppendorf) and double-stranded cDNA was recovered by precipitation according to the manufacturer's protocol and then resuspended in water.
# The double-stranded cDNA was converted to biotin-labeled cRNA by in vitro transcription (IVT) using a T7 kit (Ambion) and biotin-containing ribonucleotides (Enzo-LOXO GmbH). […]
structure (smiles),measurement,setting,value
O=S(=O)(c1ccccc1)N(CC(F)(F)F)c1ccc(C(O)(C(F)(F)F)C(F)(F)F)cc1 [T0901317],"Gene expression changes for ABCA1, ABCG1, APOC1, APOE, ASM3A, CDC42EP4, CXCR4, FASN, LDLR, NR1H3, VLDLR",THP1 macrophages [1],robust and significant increase in expression
same,"Gene expression changes of the listed marker genes (ABCA1, ABCG1, APOC1, APOE, ASM3A, C3F, CDC42EP4, CXCR4 ... PRKCI)",THP1 macrophages [2],strong induction
